Assay in series [1]: not given
This is another data set of the same source.

Series [2] has as its target purified human Factor XIa (Homo sapiens (Human), UniProt P03951). Description: Factor XIa enzyme inhibition assay (chromogenic substrate S-2366). Type of series: biochemical. Particulars: substrate S-2366, pH 7.4. The procedure:
The effectiveness of compounds of the present invention as inhibitors of the coagulation Factors XIa, VIIa, IXa, Xa, XIIa, plasma kallikrein or thrombin, can be determined using a relevant purified serine protease, respectively, and an appropriate synthetic substrate. The rate of hydrolysis of the chromogenic or fluorogenic substrate by the relevant serine protease was measured both in the absence and presence of compounds of the present invention. […] A decrease in the rate of absorbance or fluorescence change in the presence of inhibitor is indicative of enzyme inhibition. Such methods are known to one skilled in the art. The results of this assay are expressed as the inhibitory constant, Ki.
Values of Ki were determined by allowing the protease to react with the substrate in the presence of the inhibitor. Reactions were allowed to go for periods of 20-180 minutes (depending on the protease) and the velocities (rate of absorbance or fluorescence change versus time) were measured. The following relationships were used to calculate Ki values: (vo−vs)/vs=I/(Ki(1+S/Km)) for a competitive inhibitor with one binding site; or vs/vo=A+((B−A)/1+((IC50/(I)n))); and Ki=IC50/(1+S/Km) for a competitive inhibitor where: […]

[3] abbreviates: from C=CCCCc1ccccc1-c1cn(COCC[Si](C)(C)C)c([C@H](CC=C)NC(=O)OC(C)(C)C)n1, rcm bond, 12-membered ring, Grubbs II (0.4 eq)/pTsOH, DCM, 0.97 mM, 40.0 °C, 1.0 h.
The mark [4] stands for this setting: from C=CCCOc1ccccc1-c1cn(COCC[Si](C)(C)C)c([C@H](CC=C)NC(=O)OC(C)(C)C)n1, rcm bond, 12-membered ring, Grubbs II (1 eq)/pTsOH, DCM, 1.02 mM, 40.0 °C, 1.0 h.

Among the data in patent US11136327B2, “Macrocycles as factor XIA inhibitors” (Bristol-Myers Squibb Company, priority 2010, dated 2021) are ring closure, isolated yield, ring closure, yield after HPLC and Ki values, retold here.

Where two headings read alike, the source gives them in different places.

purified human Factor XIa, sequence (P03951 388-625): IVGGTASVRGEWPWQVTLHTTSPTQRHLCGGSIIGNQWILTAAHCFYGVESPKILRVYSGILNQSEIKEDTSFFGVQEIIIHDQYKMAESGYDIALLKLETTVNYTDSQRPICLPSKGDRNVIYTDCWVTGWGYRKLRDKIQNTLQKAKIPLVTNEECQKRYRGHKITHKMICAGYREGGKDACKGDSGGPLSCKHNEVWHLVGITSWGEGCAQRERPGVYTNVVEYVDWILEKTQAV
purified human Factor XIa, sequence (P03951 19-387 partner): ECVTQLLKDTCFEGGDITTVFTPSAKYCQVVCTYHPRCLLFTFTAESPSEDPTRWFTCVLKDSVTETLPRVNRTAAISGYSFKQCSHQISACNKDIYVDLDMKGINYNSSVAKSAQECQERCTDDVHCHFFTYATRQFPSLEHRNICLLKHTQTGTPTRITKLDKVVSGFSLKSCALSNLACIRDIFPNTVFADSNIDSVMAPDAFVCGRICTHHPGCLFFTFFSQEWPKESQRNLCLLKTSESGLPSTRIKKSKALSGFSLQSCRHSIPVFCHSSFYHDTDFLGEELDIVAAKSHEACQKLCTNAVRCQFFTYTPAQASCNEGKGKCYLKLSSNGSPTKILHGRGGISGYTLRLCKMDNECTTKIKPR

`CC(C)(C)OC(=O)N[C@H]1C/C=C/CCCc2ccccc2-c2cn(COCC[Si](C)(C)C)c1n2` displayed a ring closure, isolated yield under setting [3] of 45.3%.
In series [1] (from C=CCCC(=O)Nc1cc(NC(=O)OC)ccc1-c1ccnc([C@H](CC=C)NC(=O)OC(C)(C)C)c1, rcm bond, 13-membered ring, Grubbs II/pTsOH, DCM, 0.99 mM, 40.0 °C, 1.5 h), `COC(=O)Nc1ccc2c(c1)NC(=O)CC/C=C/C[C@H](NC(=O)OC(C)(C)C)c1cc-2ccn1` returned a ring closure, yield after HPLC of 75%.
For `COC(=O)Nc1ccc2c(c1)NC(=O)CC/C=C/C[C@H](NC(=O)OC(C)(C)C)C1=NN=C2O1`, the ring closure, isolated yield (from -[5-((S)-1-tert-Butoxycarbonylamino-but-3-enyl)-1,3,4-oxadiazol-2-yl]-3-pent-4-enoylamino-phenyl}-carbamic acid methyl ester, rcm bond, 13-membered ring, Grubbs II (0.36 eq), DCE, 0.61 mM, 75.0 °C) was determined as 19.1%.
For `COC(=O)Nc1ccc2c(c1)CCCN(C)C(=O)C[C@H](NC(=O)OC(C)(C)C)c1nc-2cn1COCC[Si](C)(C)C`, where the note is “from CNCCCc1cc(NC(=O)OC)ccc1-c1cn(COCC[Si](C)(C)C)c([C@H](CC(=O)O)NC(=O)OC(C)(C)C)n1, amide bond, 12-membered ring, BOP/DIEA/DMAP, DCM/DMF, 8.6 mM, 25.0 °C, 2.0 h”, the ring closure, isolated yield was 39.4%.
In turn, `COC(=O)c1ccc2c(c1)OCCNC(=O)CC(NC(=O)OC(C)(C)C)c1cc-2nnc1Cl` (centres unmarked) had a ring closure, yield after HPLC in series [1] (from COC(=O)c1ccc(-c2cc(C(CC(=O)O)NC(=O)OC(C)(C)C)c(Cl)nn2)c(OCCN)c1, amide bond, 12-membered ring, BOP/DIEA/DMAP, DCM/DMF, 1.28 mM, 2.5 h) of 15.3%.
In the case of `COC(=O)Nc1ccc2c(c1)N(C(=O)C(F)(F)F)[C@@H](C(=O)OC)CC=CC[C@H](NC(=O)OC(C)(C)C)c1nc-2cn1COCC[Si](C)(C)C`, under “from C=CC[C@H](NC(=O)OC(C)(C)C)c1nc(-c2ccc(NC(=O)OC)cc2N(C(=O)C(F)(F)F)[C@H](CC=C)C(=O)OC)cn1COCC[Si](C)(C)C, rcm bond, 12-membered ring, Grubbs II (15 mol%), DCE, 37.3 mM, 84.0 °C, 15.0 h”, the ring closure, isolated yield was 37%.
In the case of `CC(C)(C)OC(=O)N[C@H]1C/C=C/CCOc2ccccc2-c2cn(COCC[Si](C)(C)C)c1n2`, the ring closure, isolated yield under setting [4] was found to be 20%.
Where the note is “from C=CCC(=O)Nc1cc(NC(=O)OC)ccc1-c1cc(C(CC=C)NC(=O)OC(C)(C)C)nc(C)n1, rcm bond, 12-membered ring, Grubbs II (0.4 eq)/HCl, DCM, 0.5 mM, 40.0 °C, 4.0 h”, `COC(=O)Nc1ccc2c(c1)NC(=O)C/C=C/CC(NC(=O)OC(C)(C)C)c1cc-2nc(C)n1` (centres unmarked) registered a ring closure, isolated yield of 22%.
On to `COC(=O)Nc1ccc2c(c1)N[C@@H](C(=O)NCc1ccccn1)CCCC[C@H](NC(=O)/C=C/c1cc(Cl)ccc1-n1cnnn1)c1cc-2ccn1` [II-58], for which, in series [2], affinity was put at a Ki of 21 nM.
The compound `CC(C)(C)OC(=O)N[C@H]1C/C=C\CCCc2ccccc2-c2cn(COCC[Si](C)(C)C)c1n2` showed a ring closure, isolated yield under setting [3] of 17.6%.
Regarding `CC(C)(C)OC(=O)N[C@H]1C/C=C\CCOc2ccccc2-c2cn(COCC[Si](C)(C)C)c1n2`, under setting [4], the ring closure, isolated yield is 9%.
Where the note is “from C=CC[C@H](NC(=O)OC(C)(C)C)c1nc(-c2ccc(NC(=O)OC)cc2N[C@H](CC=C)C(=O)OC)cn1COCC[Si](C)(C)C, rcm bond, 12-membered ring, Grubbs II (0.4 eq), DCE, 40.0 mM, 120.0 °C, 0.33 h”, `COC(=O)Nc1ccc2c(c1)N[C@@H](C(=O)OC)CC=CC[C@H](NC(=O)OC(C)(C)C)c1nc-2cn1COCC[Si](C)(C)C` registered a ring closure, isolated yield of 30%.
Take `CC(C)(C)OC(=O)N[C@H]1C/C=C\CCC(=O)Nc2ccccc2C2=NN=C1O2` (mixture of isomers): the ring closure, yield after HPLC in series [1] (from C=CCCC(=O)Nc1ccccc1-c1nnc([C@H](CC=C)NC(=O)OC(C)(C)C)o1, rcm bond, 13-membered ring, Grubbs II, DCM, 4.8 mM, 75.0 °C, 1.5 h) worked out at 27%.
`COC(=O)Nc1ccc2c(c1)NC(=O)CC/C=C/CC(NC(=O)OC(C)(C)C)c1cc-2nnc1Cl` (centres unmarked) came in with a ring closure, isolated yield (from C=CCCC(=O)Nc1cc(NC(=O)OC)ccc1-c1cc(C(CC=C)NC(=O)OC(C)(C)C)c(Cl)nn1, rcm bond, 13-membered ring, Grubbs II, DCM, 6.6 mM, 1.0 h) of 56%.
With `COC(=O)Nc1ccc2c(c1)NC(=O)CC/C=C/CC(NC(=O)/C=C/c1cc(Cl)ccc1-n1cnnn1)c1cc-2nnc1Cl` (centres unmarked) [Example 89, {(E)-17-Chloro-15-[(E)-3-(5-chloro-2-tetrazol-1-yl-phenyl)-acryloylamino]-9-oxo-8,18,19-triaza-tricyclo[14.3.1.0^2,7]icosa-1(20),2,4,6,12,16,18-heptaen-5-yl}-carbamic Acid Methyl Ester], the affinity in series [2], expressed as Ki, was 1060 nM.
Where the note is “from COC(=O)Nc1ccc(-c2cn(COCC[Si](C)(C)C)c([C@H](CN(CCC(=O)O)C(=O)OC(C)(C)C)NC(=O)OCc3ccccc3)n2)c(N)c1, amide bond, 12-membered ring, BOP/DIEA, DCM/DMF, 0.93 mM, 25.0 °C, 5.0 h”, `COC(=O)Nc1ccc2c(c1)NC(=O)CCN(C(=O)OC(C)(C)C)C[C@H](NC(=O)OCc1ccccc1)c1nc-2cn1COCC[Si](C)(C)C` registered a ring closure, isolated yield of 87%.
With “(S)-Methyl N-4-(2-(1-(tert-butoxycarbonylamino)but-3-enyl)-1-((2-(trimethylsilyl)ethoxy)methyl)-1H-imidazol-4-yl)-3-(4-methylpent-4-enamido)phenylmethanimidoperoxoate”, the ring closure, isolated yield (the molecule shown is the open-chain precursor, rcm bond, 13-membered ring, Grubbs II (0.2 eq), microwave, DCE, 105.0 mM, 120.0 °C) was 34.6%.
